test system: Streptococcus pyogenes (ATCC# 97-03 14289); experiment: Anti-microbial screen (growth inhibition, OD 570 nm); assay type: cell-based; settings: ATCC97, compounds at 170 μg/ml, Todd Hewitt Broth, read at 4 hrs
Method: Streptococcus pyogenes (ATCC# 97-03 14289) were grown in Todd Hewitt Broth (THB) (Difco Laboratories #0492-17-6) overnight until they reached an optical density of (OD=0.636@ 570 nm) by reading 0.1 ml in a 96 well microtiter plate in a Molecular Devices Thermomax. This preparation was kept frozen as stocks in 30% v/v glycerol in 1.5 ml aliquots at −70 C° until used. Prior to screening, 1.5 ml aliquots were thawed and diluted into 50 ml THB. 200 μl of this dilution was added to 92 wells of microtiter plate. To three wells THB (200 μl) was added to serve as a blank and a sterility control. Test compounds in DMSO and appropriate concentrations of DMSO were added to Growth/Solvent Controls at 0 time. Plates were read at 0 time at 570 nm in the Molecular Devices plate reader to obtain compounds correction factors for insoluble or colored compounds. Plates were read again at 4 hrs.
Compounds were assayed at a concentration of 170 μg/ml. Percent inhibition for each compound was calculated using the following formulae:
Color correct=(O.D. 0 hr−Blank 0 hr)−(Solvent Control 0 hr−Blank 0 hr)
% Inhibition=100−(O.D. test compound 4 hr−Blank 4 hr−color correct) divided by (O.D. growth/solvent control 4 hr−Blank 4 hr)

| Structure (SMILES) | inhibition at 170 µg/mL [%] |
| --- | --- |
| CC(=O)N1CCN(c2ccc3c(c2)-c2nc4cc(Br)ccc4n2C(CCCNC(=N)N)C(=O)N3)CC1 (stereo not shown) [6000#60754] | 97.3 |
| COCCN(CCOC)C(=O)c1ccc2c(c1)nc1n2[C@@H](CC2CCCCC2)C(=O)Nc2ccc(N(C)CCN(C)C)cc2-1 [6000#38735] | 96.7 |
| N=C(N)NCCCC1C(=O)Nc2ccc(N3CCOCC3)cc2-c2nc3cc(Br)ccc3n21 (stereo not shown) [6000#60794] | 97.3 |
| CC(=O)NCCNC(=O)c1ccc2c(c1)nc1n2[C@@H](Cc2ccc(Cl)cc2)C(=O)Nc2ccc(NCCCN3CCCCC3C)cc2-1 (stereo partly shown) [6000#47222] | 95.7 |
| CC1(C)CC(NC(=O)c2ccc3c(c2)nc2n3[C@@H](CCC(N)=O)C(=O)Nc3ccc(NCc4cccc(C(F)(F)F)c4)cc3-2)CC(C)(C)N1 [6000#17584] | 97.2 |
| COCCN(CCOC)C(=O)c1ccc2c(c1)nc1n2[C@@H](Cc2ccc(Cl)cc2)C(=O)Nc2ccc(N(C)CCN(C)C)cc2-1 [6000#46895] | 96.1 |
| CCOC(=O)N1CCN(C(=O)c2ccc3c(c2)nc2n3C(CCCNC(=N)N)C(=O)Nc3ccc(Sc4ccccn4)cc3-2)CC1 (stereo not shown) [6000#59425] | 96.8 |
| CN(C)CCCN(C)c1ccc2c(c1)-c1nc3cc(C(=O)NCCN4CCOCC4)ccc3n1[C@@H](CC1CCCCC1)C(=O)N2 [6000#39255] | 95.2 |
| CCOC(=O)C1CCCN(C(=O)c2ccc3c(c2)nc2n3C(CCCNC(=N)N)C(=O)Nc3ccc(N4CCCC(C(=O)OCC)C4)cc3-2)C1 (stereo not shown) [6000#58437] | 100 |
| CN(C)CCCNc1ccc2c(c1)-c1nc3ccc(Cl)cc3n1[C@H](Cc1ccccc1)C(=O)N2 [6000#36687] | 96.1 |
| CN(C)CCN(C)c1ccc2c(c1)-c1nc3ccccc3n1[C@H](Cc1ccccc1)C(=O)N2 [6000#36335] | 100 |
| CSCCCNC(=O)c1ccc2c(c1)nc1n2[C@@H](CC2CCCCC2)C(=O)Nc2ccc(N(C)CCN(C)C)cc2-1 [6000#39135] | 98.1 |
| CCOC(=O)N1CCN(C(=O)c2ccc3c(c2)nc2n3C(CCCNC(=N)N)C(=O)Nc3ccc(N4CCSCC4)cc3-2)CC1 (stereo not shown) [6000#59435] | 96.1 |
| CCCCNc1ccc2c(c1)-c1nc3cc(C(=O)N4CCCC4)ccc3n1C(CCCNC(=N)N)C(=O)N2 (stereo not shown) [6000#57503] | 97.4 |
| CN(C)CCCNc1ccc2c(c1)-c1nc3cc(C(F)(F)F)ccc3n1C(CCCCNC(=O)C(F)(F)F)C(=O)N2 (stereo not shown) [6000#56927] | 96.3 |
| CCCCNc1ccc2c(c1)-c1nc3cc(C(=O)NCCCCCC(=O)OC)ccc3n1C(CCCNC(=N)N)C(=O)N2 (stereo not shown) [6000#57343] | 100 |
| CCN(CC)c1ccc2c(c1)-c1nc3cc(C(=O)N(C)C4CCN(C)CC4)ccc3n1C(CCCNC(=N)N)C(=O)N2 (stereo not shown) [6000#57999] | 95.1 |
| CCOC(=O)N1CCN(C(=O)c2ccc3c(c2)nc2n3C(CCCNC(=N)N)C(=O)Nc3ccc(Sc4nc(C)cc(C)n4)cc3-2)CC1 (stereo not shown) [6000#59393] | 96.1 |
| CC(=O)NC1CCN(C(=O)c2ccc3c(c2)nc2n3C(CCCNC(=N)N)C(=O)Nc3ccc(N4CCSCC4)cc3-2)C1 (stereo not shown) [6000#59355] | 97.2 |
| CC(=O)NCCNC(=O)c1ccc2c(c1)nc1n2C(CCCNC(=N)N)C(=O)Nc2ccc(NCc3ccc(F)cc3)cc2-1 (stereo not shown) [6000#59512] | 98.7 |

| Structure (SMILES) | inhibition at 170 µg/mL [%] |
| --- | --- |
| CN(CCc1ccccc1)c1ccc2c(c1)-c1nc3cc(C(=O)NC4CC(C)(C)NC(C)(C)C4)ccc3n1[C@@H](CCC(N)=O)C(=O)N2 [6000#17560] | 98.6 |
| CCOC(=O)N1CCN(c2ccc3c(c2)-c2nc4ccccc4n2C(CCCNC(=N)N)C(=O)N3)CC1 (stereo not shown) [6000#60826] | 95 |
| CCN1CCCC1CNC(=O)c1ccc2c(c1)nc1n2CC(=O)Nc2ccc(NCCCN3CCOCC3)cc2-1 (stereo not shown) [6000#00010] | 95.7 |
| CN(C)CCN(C)c1ccc2c(c1)-c1nc3ccc(Cl)cc3n1[C@H](Cc1ccccc1)C(=O)N2 [6000#36655] | 96.8 |
| COCCN(CCOC)C(=O)c1ccc2c(c1)nc1n2C(CCCNC(=N)N)C(=O)Nc2ccc(N(C)Cc3ccccc3)cc2-1 (stereo not shown) [6000#59152] | 97.2 |
| CN(C)CCN(C)c1ccc2c(c1)-c1nc3cc(Br)ccc3n1C(CCCNC(=N)N)C(=O)N2 (stereo not shown) [6000#60735] | 99.9 |
| CCOCCNc1ccc2c(c1)-c1nc3cc(Br)ccc3n1C(CCCNC(=N)N)C(=O)N2 (stereo not shown) [6000#60778] | 98.8 |
| CN(C)CCCN(C)c1ccc2c(c1)-c1nc3cc(C(F)(F)F)ccc3n1C(CCCCNC(=O)C(F)(F)F)C(=O)N2 (stereo not shown) [6000#56935] | 95.8 |
| CCN(CC)CCN(C)c1ccc2c(c1)-c1nc3cc(C(F)(F)F)ccc3n1C(CCCCNC(=O)C(F)(F)F)C(=O)N2 (stereo not shown) [6000#56919] | 95.8 |
| CCN1CCCC1CNc1ccc2c(c1)-c1nc3cc(C(F)(F)F)ccc3n1C(CCCCNC(=O)C(F)(F)F)C(=O)N2 (stereo not shown) [6000#56957] | 97.4 |
| CCOC(=O)C1CCCN(C(=O)c2ccc3c(c2)nc2n3C(CCCNC(=N)N)C(=O)Nc3ccc(N4CCSCC4)cc3-2)C1 (stereo not shown) [6000#58475] | 99.1 |
| N=C(N)NCCCC1C(=O)Nc2ccc(N3CCSCC3)cc2-c2nc3ccccc3n21 (stereo not shown) [6000#60875] | 101 |
| CCOC(=O)C1CCN(c2ccc3c(c2)-c2nc4cc(C(=O)N5CCC(NC(C)=O)C5)ccc4n2C(CCCNC(=N)N)C(=O)N3)CC1 (stereo not shown) [6000#59325] | 95.2 |
| CN(C)CCCNc1ccc2c(c1)-c1nc3cc(Br)ccc3n1C(CCCCNC(=O)C(F)(F)F)C(=O)N2 (stereo not shown) [6000#56687] | 96.8 |
| CCOC(=O)CCNC(=O)c1ccc2c(c1)nc1n2C(CCCNC(=N)N)C(=O)Nc2ccc(NC3CCN(Cc4ccccc4)C3)cc2-1 (stereo not shown) [6000#57389] | 97.3 |
| CSCCCNC(=O)c1ccc2c(c1)nc1n2[C@@H](Cc2ccc(Cl)cc2)C(=O)Nc2ccc(N(C)CCCN(C)C)cc2-1 [6000#47335] | 96.2 |
| CC1CC(Nc2ccc3c(c2)-c2nc4ccc(Cl)cc4n2CC(=O)N3)CC(C)(C)C1 (stereo not shown) [6000#04080] | 95.3 |
| CCOC(=O)N1CCN(C(=O)c2ccc3c(c2)nc2n3C(CCCNC(=N)N)C(=O)Nc3ccc(NCCCSC)cc3-2)CC1 (stereo not shown) [6000#59387] | 97.8 |
| CN(C)CCN(C)c1ccc2c(c1)-c1nc3cc(C(F)(F)F)ccc3n1[C@@H](Cc1c[nH]c3ccccc13)C(=O)N2 [6000#52815] | 98.8 |
| CCOC(=O)C1CCN(c2ccc3c(c2)-c2nc4ccc(Cl)cc4n2C(CCCCNC(=O)C(F)(F)F)C(=O)N3)CC1 (stereo not shown) [6000#57085] | 96.7 |

| Structure (SMILES) | inhibition at 170 µg/mL [%] |
| --- | --- |
| CCN1CCCC1CNC(=O)c1ccc2c(c1)nc1n2CC(=O)Nc2ccc(NCCN3CCOCC3)cc2-1 (stereo not shown) [6000#00002] | 96.3 |
| CN(C)CCN(C)c1ccc2c(c1)-c1nc3cc(Br)ccc3n1[C@@H](CCCCNC(=O)C(F)(F)F)C(=O)N2 [6000#56655] | 97.8 |
| CN(C)CCCN(C)c1ccc2c(c1)-c1nc3cc(Br)ccc3n1C(CCCCNC(=O)C(F)(F)F)C(=O)N2 (stereo not shown) [6000#56695] | 95.8 |
| CCOC(=O)CCNC(=O)c1ccc2c(c1)nc1n2C(CCCNC(=N)N)C(=O)Nc2ccc(Sc3ccccn3)cc2-1 (stereo not shown) [6000#57425] | 97.8 |
| CCOC(=O)N1CCN(C(=O)c2ccc3c(c2)nc2n3C(CCCNC(=N)N)C(=O)Nc3ccc(N(CC)CC)cc3-2)CC1 (stereo not shown) [6000#59439] | 96.4 |
| CCN1CCCC1CNC(=O)c1ccc2c(c1)nc1n2CC(=O)Nc2ccc(NCCN(C)C)cc2-1 (stereo not shown) [6000#00007] | 95.2 |
| O=C1Cn2c(nc3ccc(Cl)cc32)-c2cc(NC3CCCCCC3)ccc2N1 [6000#04048] | 95 |
| CCOC(=O)C1CCCN(c2ccc3c(c2)-c2nc4cc(C(=O)N5CCC(NC(C)=O)C5)ccc4n2C(CCCNC(=N)N)C(=O)N3)C1 (stereo not shown) [6000#59317] | 96.6 |
| CC1CCCCN1CCCNc1ccc2c(c1)-c1nc3ccc(Cl)cc3n1C(C)C(=O)N2 (stereo not shown) [6000#08102] | 95.1 |
| CCN1CCCC1CNC(=O)c1ccc2c(c1)nc1n2CC(=O)Nc2ccc(N(C)CCN(C)C)cc2-1 (stereo not shown) [6000#00015] | 96.3 |
| CN(C)CCCN(C)c1ccc2c(c1)-c1nc3cc(C(=O)NCCCN4CCCC4=O)ccc3n1[C@@H](Cc1ccc(Cl)cc1)C(=O)N2 [6000#46455] | 96.8 |
| CCN(CC)c1ccc2c(c1)-c1nc3ccccc3n1C(CCCNC(=N)N)C(=O)N2 (stereo not shown) [6000#60879] | 97.4 |
| CCOC(=O)CCNC(=O)c1ccc2c(c1)nc1n2[C@@H](Cc2ccc(Cl)cc2)C(=O)Nc2ccc(N(C)CCN(C)C)cc2-1 [6000#45135] | 97.8 |
| CC(=O)NCCNc1ccc2c(c1)-c1nc3cc(Br)ccc3n1C(CCCNC(=N)N)C(=O)N2 (stereo not shown) [6000#60738] | 96.5 |
| CN(C)CCCN(C)c1ccc2c(c1)-c1nc3cc(C(=O)N4CCC(C(N)=O)CC4)ccc3n1[C@@H](CC1CCCCC1)C(=O)N2 [6000#38375] | 95.1 |
| Cn1cnnc1Sc1ccc2c(c1)-c1nc3ccccc3n1C(CCCNC(=N)N)C(=O)N2 (stereo not shown) [6000#60857] | 95.3 |
| CCOC(=O)C1CCCN(C(=O)c2ccc3c(c2)nc2n3C(CCCNC(=N)N)C(=O)Nc3ccc(N(C)CCc4ccccn4)cc3-2)C1 (stereo not shown) [6000#58414] | 98 |
| CCOCCNc1ccc2c(c1)-c1nc3cc(C(=O)Nc4nccs4)ccc3n1C(CCCNC(=N)N)C(=O)N2 (stereo not shown) [6000#57258] | 96.9 |

From US6515122B1, “Tetracyclic benzimidazole derivatives and combinatorial libraries thereof” (Lion Bioscience AG, priority 1999, dated 2003)
